Results: patent US20060052404A1, “Pharmaceutical formulations comprising substituted xanthine compounds” (priority 2001, published 2006)

Assays:
[1] = system: human epithelial cell line expressing the CFTR-ΔF508 mutation; details: cells having the CFTR-ΔF508 mutation; cited from earlier work
[2] = CPX absorption profile in rats, water vs corn oil formulation, single oral gavage; format: in vivo; details: rat, 1.4 mg/kg single oral gavage, during the course of the experiment
Protocol: Experimental—This study was designed to determine the pharmacokinetics of CPX bioavailability in blood plasma following a single oral administration by oral gavage to male Sprague-Dawley rats. The CPX compound was suspended in either a corn oil or water formulation and administered once via oral gavage at 10 ml/kg of rat weight to two groups of male Sprague-Dawley rats.
The rats were not fasted prior to blood collection. Approximately 0.4 ml of whole blood was collected from each animal into heparinized tubes via puncture of the orbital sinus under 70% CO2/30% O2 anesthesia. Approximately 0.2 ml of plasma was separated by centrifugation and analyzed for CPX concentration using high performance liquid chromatography (HPLC) with mass spectrometric detection. Following the completion of blood collection, all surviving animals were euthanized by carbon dioxide overdose.
Rat plasma CPX concentration as a function of time (in hours) using the two formulations was measured. Each rat in this experiment (n=10) received a 1.4 mg/kg CPX dose, which was equivalent to a 100 mg dose. Ten rats were used at each time point to generate a mean CPX concentration value.

[3] = CPX absorption profiles of four suspension formulations in dogs, single oral dose; format: in vivo, male Beagle dogs; details: dog, 30 mg/kg oral
Protocol: Experimental—This study was designed to determine the relative bioavailability of a single oral CPX dose when administered by gavage to male Beagle dogs. The CPX dosages was administered in a single 30 mg/kg oral dose in four different suspension formulations. These suspension formulations were: • 1) xanthan gum (homogenized), • 2) sodium carboxymethylcellulose [NaCMC] (homogenized), • 3) sodium carboxymethylcellulose [NaCMC] (non-homogenized), and • 4) corn oil (homogenized).
Each formulation contained CPX at a nominal concentration of 60 mg/gram of suspension. […]
Whole blood samples were collected (approx. 3 ml/sample) by jugular venipuncture into sodium heparin-containing collection tubes. […] The whole blood was centrifuged to isolate plasma, and concentrations of CPX in the plasma at these time intervals were determined using high performance liquid chromatography (HPLC) with mass spectrometric detection, with a lower quantitation limit of 1 ng/ml.
The following pharmacokinetic parameters were determined for each experimental CPX formulation: • Cmax—maximum analyte concentration in the plasma, ng/ml • Tmax—time of maximum analyte concentration in the plasma • T1/2—terminal half-life of the drug • AUClast—area under the curve (AUC) from time 0 to the last measurable concentration. […] Expressed as ng·h/ml AUC(0∞)—area under the curve from time 0 to infinity (also written AUCinf or AUC∞)

[4] = Solubility of CPX in solvents tested; format: physicochemical; details: any of the solvents tested, despite use of co-solvents
Source text: This EXAMPLE describes the CPX formulations used in the present invention. Adequate solubility of CPX was unattainable in any of the solvents tested, even despite the use of co-solvents. This insolubility necessitated the use of the suspension and capsule formulations, as described below. One formulation was left non-homogenized to study the effect of homogenization on bioavailability.

[5] = Mutagenicity and adverse side effects of oral doses in animal model systems; format: in vivo; details: oral doses to rat, guinea pig, mouse or dog model systems
[6] = Adverse side effects of oral doses in human subjects; format: in vivo; details: oral doses to human subjects
[7] = system: cell derived from a cystic fibrosis patient; details: cited from earlier work
[8] = molecular target: isolated CFTR channels (Homo sapiens, UniProt P13569); details: in vitro lipid bilayers; cited from earlier work
[9] = molecular target: NBF-1 region of CFTR (Homo sapiens, UniProt P13569); details: cited from earlier work
[10] = molecular target: CFTR-ΔF508 NBF-1 (Homo sapiens, UniProt P13569, DEL508-508); details: cited from earlier work
[11] = molecular target: CFTR-ΔF508 (Homo sapiens, UniProt P13569, DEL508-508); details: cited from earlier work
[12] = molecular target: T1, A1 adenosine receptor (Homo sapiens, UniProt P30542); details: cited from earlier work
T1 sequence (P30542 1-326): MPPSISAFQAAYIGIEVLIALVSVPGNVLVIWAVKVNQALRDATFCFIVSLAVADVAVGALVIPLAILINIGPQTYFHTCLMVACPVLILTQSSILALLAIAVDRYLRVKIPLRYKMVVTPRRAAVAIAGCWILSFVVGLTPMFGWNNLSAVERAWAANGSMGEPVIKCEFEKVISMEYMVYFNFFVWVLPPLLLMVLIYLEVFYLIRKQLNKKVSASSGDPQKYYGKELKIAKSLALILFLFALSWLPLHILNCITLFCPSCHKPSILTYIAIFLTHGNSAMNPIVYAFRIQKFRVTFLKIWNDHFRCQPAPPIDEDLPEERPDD

Chain of isolated CFTR channels (P13569 whole entry): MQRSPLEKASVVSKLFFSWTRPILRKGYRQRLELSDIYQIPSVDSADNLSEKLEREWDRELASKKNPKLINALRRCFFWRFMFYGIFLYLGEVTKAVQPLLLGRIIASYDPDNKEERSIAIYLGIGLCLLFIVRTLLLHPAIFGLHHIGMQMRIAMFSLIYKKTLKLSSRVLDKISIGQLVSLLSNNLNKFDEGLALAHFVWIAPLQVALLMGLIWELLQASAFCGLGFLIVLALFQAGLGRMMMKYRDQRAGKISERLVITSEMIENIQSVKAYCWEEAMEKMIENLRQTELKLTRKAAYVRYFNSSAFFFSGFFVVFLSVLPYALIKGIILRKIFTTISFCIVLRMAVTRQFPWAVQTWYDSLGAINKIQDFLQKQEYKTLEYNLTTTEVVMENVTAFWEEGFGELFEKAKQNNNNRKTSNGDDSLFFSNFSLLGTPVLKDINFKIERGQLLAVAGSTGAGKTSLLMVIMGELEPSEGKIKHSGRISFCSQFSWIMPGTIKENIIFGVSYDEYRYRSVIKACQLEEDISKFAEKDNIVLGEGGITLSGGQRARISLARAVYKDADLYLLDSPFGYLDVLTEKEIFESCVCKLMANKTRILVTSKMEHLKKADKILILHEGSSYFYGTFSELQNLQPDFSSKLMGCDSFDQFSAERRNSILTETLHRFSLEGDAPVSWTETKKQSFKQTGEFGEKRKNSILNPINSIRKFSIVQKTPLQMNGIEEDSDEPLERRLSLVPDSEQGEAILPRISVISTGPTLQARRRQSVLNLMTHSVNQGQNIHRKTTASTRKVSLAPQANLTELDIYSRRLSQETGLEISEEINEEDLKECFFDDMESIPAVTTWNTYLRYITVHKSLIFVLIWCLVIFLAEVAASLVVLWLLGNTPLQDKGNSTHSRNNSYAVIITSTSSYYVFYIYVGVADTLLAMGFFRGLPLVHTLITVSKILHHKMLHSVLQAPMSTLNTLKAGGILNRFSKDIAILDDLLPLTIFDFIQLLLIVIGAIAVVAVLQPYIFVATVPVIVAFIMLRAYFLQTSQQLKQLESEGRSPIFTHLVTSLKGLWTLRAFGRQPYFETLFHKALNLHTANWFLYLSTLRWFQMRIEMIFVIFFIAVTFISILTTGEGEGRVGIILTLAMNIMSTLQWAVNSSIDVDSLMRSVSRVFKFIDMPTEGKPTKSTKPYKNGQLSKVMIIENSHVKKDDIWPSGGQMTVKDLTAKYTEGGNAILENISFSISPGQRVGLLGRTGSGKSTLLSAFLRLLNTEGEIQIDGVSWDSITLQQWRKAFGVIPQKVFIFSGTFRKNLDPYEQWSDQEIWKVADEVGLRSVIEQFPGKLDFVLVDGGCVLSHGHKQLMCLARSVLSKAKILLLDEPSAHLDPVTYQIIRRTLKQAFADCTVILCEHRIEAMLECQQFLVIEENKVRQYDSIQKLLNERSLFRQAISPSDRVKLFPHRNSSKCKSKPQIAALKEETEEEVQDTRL
Chain of CFTR-ΔF508 (P13569 with tags, fused parts or gaps DEL508-508): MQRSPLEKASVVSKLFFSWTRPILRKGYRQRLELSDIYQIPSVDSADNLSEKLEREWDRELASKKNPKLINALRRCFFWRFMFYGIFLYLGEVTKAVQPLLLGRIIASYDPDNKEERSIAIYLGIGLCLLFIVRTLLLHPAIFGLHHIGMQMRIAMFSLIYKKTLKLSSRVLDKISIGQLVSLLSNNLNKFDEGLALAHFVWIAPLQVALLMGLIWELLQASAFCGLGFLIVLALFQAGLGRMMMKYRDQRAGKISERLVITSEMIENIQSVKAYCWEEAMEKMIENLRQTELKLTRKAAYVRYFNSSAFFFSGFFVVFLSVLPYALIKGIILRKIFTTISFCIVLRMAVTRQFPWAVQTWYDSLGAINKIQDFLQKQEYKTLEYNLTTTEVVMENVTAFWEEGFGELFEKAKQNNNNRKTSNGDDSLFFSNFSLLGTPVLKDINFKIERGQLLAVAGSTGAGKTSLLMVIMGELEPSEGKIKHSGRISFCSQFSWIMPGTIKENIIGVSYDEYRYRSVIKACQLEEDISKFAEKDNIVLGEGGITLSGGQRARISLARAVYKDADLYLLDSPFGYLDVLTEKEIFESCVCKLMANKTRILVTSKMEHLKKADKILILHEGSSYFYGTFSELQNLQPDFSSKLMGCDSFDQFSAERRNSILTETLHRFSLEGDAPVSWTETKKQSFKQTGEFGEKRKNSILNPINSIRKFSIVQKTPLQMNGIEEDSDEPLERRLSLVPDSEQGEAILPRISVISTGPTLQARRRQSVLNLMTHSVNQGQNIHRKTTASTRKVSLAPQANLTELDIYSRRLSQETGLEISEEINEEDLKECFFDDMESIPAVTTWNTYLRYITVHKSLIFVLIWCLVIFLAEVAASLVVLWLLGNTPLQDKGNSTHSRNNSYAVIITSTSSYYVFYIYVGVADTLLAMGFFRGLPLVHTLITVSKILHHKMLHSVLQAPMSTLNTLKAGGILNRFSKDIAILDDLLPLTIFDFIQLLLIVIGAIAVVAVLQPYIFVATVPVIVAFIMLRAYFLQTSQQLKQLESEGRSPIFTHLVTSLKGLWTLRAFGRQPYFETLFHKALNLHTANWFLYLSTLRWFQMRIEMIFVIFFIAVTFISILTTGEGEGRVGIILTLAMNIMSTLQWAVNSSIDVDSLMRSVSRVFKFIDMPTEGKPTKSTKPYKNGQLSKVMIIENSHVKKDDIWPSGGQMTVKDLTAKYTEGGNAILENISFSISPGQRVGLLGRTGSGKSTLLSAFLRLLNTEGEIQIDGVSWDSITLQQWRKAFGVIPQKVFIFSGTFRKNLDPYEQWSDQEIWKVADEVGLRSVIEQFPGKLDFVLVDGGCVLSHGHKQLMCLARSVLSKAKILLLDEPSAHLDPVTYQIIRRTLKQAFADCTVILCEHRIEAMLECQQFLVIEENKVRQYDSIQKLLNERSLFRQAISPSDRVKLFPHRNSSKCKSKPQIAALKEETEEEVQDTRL
Chain of NBF-1 region of CFTR (P13569 423-646 limits assumed): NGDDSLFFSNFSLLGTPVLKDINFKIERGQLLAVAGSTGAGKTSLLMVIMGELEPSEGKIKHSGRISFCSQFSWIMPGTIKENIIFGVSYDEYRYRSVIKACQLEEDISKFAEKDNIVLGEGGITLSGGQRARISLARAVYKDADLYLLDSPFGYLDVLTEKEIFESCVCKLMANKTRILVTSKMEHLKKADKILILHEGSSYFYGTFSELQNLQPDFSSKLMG
Chain of CFTR-ΔF508 NBF-1 (P13569 with tags, fused parts or gaps DEL508-508 limits assumed): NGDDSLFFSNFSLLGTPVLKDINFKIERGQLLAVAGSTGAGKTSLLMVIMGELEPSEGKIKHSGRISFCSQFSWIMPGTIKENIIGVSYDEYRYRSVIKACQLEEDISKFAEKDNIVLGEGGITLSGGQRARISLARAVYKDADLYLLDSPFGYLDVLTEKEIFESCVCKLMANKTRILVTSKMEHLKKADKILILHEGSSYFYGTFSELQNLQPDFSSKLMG

1,3-dipropyl-7-methylcyclopenthylxanthine [DP-CPX]
chloride efflux [1]: activating chloride ion efflux

Cn1c(=O)c2c(nc(C3CCCCC3)n2C)n(C)c1=O [CHC, cyclohexylcaffeine]
chloride efflux [1]: activating chloride ion efflux

CCCn1c(=O)c2[nH]c(C3CCCC3)nc2n(CCC)c1=O [CPX, 1,3-dipropyl-8-cyclopentylxanthine]
mortality or signs of morbidity [2]: no mortality or signs of morbidity | time of measured peak concentrations of CPX in the plasma after oral dosing [3]: ≤ 5 h | adequate solubility [4]: unattainable | mutagenicity or grossly apparent adverse side effects [5]: does not appear to display any mutagenicity or grossly apparent adverse side effects | apparent adverse side effects [6]: no apparent adverse side effects | chloride efflux [7]: activates | activation of isolated CFTR channels [8]: activates | binding to the NBF-1 region of CFTR [9]: binds | affinity for CFTR-ΔF508 NBF-1 versus wild-type CFTR NBF-1 [10]: greater | intracellular trafficking and maturation of CFTR-ΔF508 [11]: enhances | A1 adenosine receptor antagonism [12]: potent | chloride efflux [1]: promotes chloride efflux

C=CCn1c(=O)c2[nH]c(C3CCCCC3)nc2n(CC=C)c1=O [DAX, N,N-diallylcyclohexylxanthine]
chloride efflux [1]: activating chloride ion efflux

CCCn1c(=O)c2[nH]c(-c3ccc(OCC(=O)NCCN)cc3)nc2n(CCC)c1=O [xanthine amino congener]
chloride efflux [1]: activating chloride ion efflux
